Patent US20150150842A1, “DESETHYLAMIODARONE COMPOSITIONS” (priority 2012, published 2015)
Several values for one entry are separate records, joined by “and”; a condition that tells them apart may be missing. Identical values can stand only once.

What was measured:
[1] = system: conscious rats
Protocol: The present experiments were performed on male, Sprague-Dawley CFY rats weighing 260-300 g. During a preliminary open-chest surgery we applied a loose silk loop around the left main coronary artery, and then the chest was closed (Leprán et al., 1983). Seven-eight days after the preliminary surgery—after complete recovery and healing—the loose silk loop was tightened to occlude the coronary artery in conscious, freely moving animals. During the first 15 min of myocardial infarction a bipolar ECG was recorded continuously (PowerLab 8SP, ADInstruments, Great Britain).
We followed the survival rate during the acute phase (first 15 min) and during the subsequent 16 hours after coronary artery occlusion. The incidence and duration of arrhythmias in the acute phase were evaluated according to the Lambeth Conventions (Walker et al., 1988), i.e. ventricular fibrillation, ventricular tachycardia, and other types of arrhythmias, including ventricular extrasystoles, bigeminy, and salvos. The size of myocardial infarction was measured in the animals surviving for 16 hours after coronary artery occlusion using nitrotetrazolium-blue dye staining.
Long-term oral pretreatment was applied for 1 month before the coronary artery occlusion. […] Control animals were given the vehicle in a volume of 5 ml/kg.

[2] = system: conscious dogs with structural atrial remodelling; test: Chronic rapid atrial pacing induced atrial remodelling and burst-induced atrial fibrillation in conscious dogs
Protocol: The experiments were performed on chronically instrumented Beagle dogs of both sexes, weighing 12-13 kg. The animals were subjected to the following surgery under general anaesthesia: pacemakers were implanted into bilateral subcutaneous pockets in the neck area (Logos, Karios; Biotronik Hungaria Ltd.) and were attached to pacemaker electrodes implanted into the right ventricle and right atrium. Radiofrequency catheter ablation was performed in each animal to achieve third degree atrioventricular (AV) block so that during subsequent rapid atrial pacing (400/min) the ventricles are protected from high heart rates. […] On the seventh day after surgery, following the measurement of right atrial effective refractory period the atrial pacemaker was set to a frequency of 400/min to achieve atrial electrical and structural remodelling. Right atrial rapid pacing is necessary to maintain for 3 months in this model to obtain complete remodeling of the atria signalled by the reduction of right atrial effective refractory period below 80 ms.
(§1) The body weight of animals was monitored for strict adherence to the desired dose.
(§2) The right atrial effective refractory period (ERP) was measured using the S1 -S2 protocol at cycle lengths of 150 and 300 ms. In addition ERP monitoring, 10-second long burst stimuli were applied at 800/min frequency to induce atrial fibrillation and the incidence of AF, the duration of AF episodes were measured before commencement of oral drug therapy and then after the initiation of therapy every 4 days.

[3] = Cardiac, liver and lung tissue DEA and AMIO levels in dogs with atrial fibrillation and structural atrial remodelling; details: for concentration at 4 weeks: both, Beagle, dog, oral, 50 mg/kg/day
Protocol: as §1, §2
Cardiac tissue drug levels were measured in right atrial, left atrial, right ventricular and left ventricular tissue samples. Following the sacrifice of the animals (the subsequent day after the 4-week treatment), tissue samples were taken before tissue preparations were isolated for in vitro studies.

[4] = system: dog atrial and ventricular tissue; test: Atrial and ventricular action potential parameters after chronic oral treatment of non-instrumented dogs; assay type: in vivo, Beagle dogs; details: 500 ms cycle length, 4-week oral DEA 30 or AMIO 45 mg/kg/day
[5] = system: rats; test: Chronic 28-day non-GLP toxicology in rats
[6] = Plasma and tissue DEA and AMIO levels in non-instrumented dogs; details: 4-week oral AMIO 45 mg/kg/day, individual dogs 1 and 2
[7] = dogs with AF, 4-week oral AMIO 50 mg/kg/day
[8] = dogs with structural atrial remodelling, 4-week oral AMIO 50 mg/kg/day

CCCCc1oc2ccccc2c1C(=O)c1cc(I)c(OCCN(CC)CC)c(I)c1 [AMIO, amiodarone]
Death due to the 1 month treatment ([1]; 1 month oral pretreatment): No death occurred
Survival rate during the acute phase of experimental myocardial infarction ([1]; 1 month oral pretreatment): significantly improved
Behavioral changes, body weight increments ([1]; 1 month oral pretreatment, AMIO 30 or 100, DEA 15 or 50 mg/kg/day): Neither AMIO nor DEA produced any behavioral changes of the animals, or in body weight increments
Arrhythmia score ([1]; first 15 min after coronary artery occlusion, 1 month oral AMIO 100 or DEA 50 mg/kg/day, control 4.77±0.33): 2.05±0.52
Incidence of ventricular fibrillation ([1]; larger doses (AMIO 100, DEA 50 mg/kg/day), after coronary artery occlusion): significantly decreased
Mood, behaviour, appetite and body weight ([2]; dogs, 4-week oral, DEA 25, AMIO 50 mg/kg/day): loss of appetite followed by a reduction in body weight
Lg AF duration, Following 4-week treatment, individual animals ([2]; oral AMIO 50 mg/kg/day, Control (before) 2.59, 3.12, 4.35): 1.35 and 0.88 and 0.12
AF duration (s), Following 4-week treatment, individual animals ([2]; oral AMIO 50 mg/kg/day, Control (before) 386.5, 1 302.9, 2 2663.7): 22.5 s and 7.5 s and 1.31 s
ERP, Following 4-week treatment, individual animals ([2]; oral AMIO 50 mg/kg/day, animals 2011/01, 2011/08, 2011/9, Control (before) 90, <80, 80): 100 ms (2×) and 130 ms
Incidence of AF, Following 4-week treatment, individual animals ([2]; oral AMIO 50 mg/kg/day, burst-induced AF, Control (before) 100%, 90%, 67%): 40% and 10% (2×)
Lg AF duration, Following 4-week treatment, Mean ± SE ([2]; oral AMIO 50 mg/kg/day, n=3, Control (before) 3.35 ± 0.52): 0.78 ± 0.36
Incidence of AF, Following 4-week treatment, Mean ± SE ([2]; oral AMIO 50 mg/kg/day, n=3, Control (before) 88.0 ± 10.54): 20.0 ± 10.0 %
AF duration (s), Following 4-week treatment, Mean ± SE ([2]; oral AMIO 50 mg/kg/day, n=3, Control (before) 8117.7 ± 7277.8): 10.4 ± 6.29 s
Incidence and duration of atrial fibrillation ([2]; three animals, 4-week oral treatment, DEA 25, AMIO 50 mg/kg/day, accompanied by prolongation of the ERP): showed a decreasing tendency
Liver and lung tissue concentrations of DEA in chronic AMIO treated dogs compared to chronic DEA treated dogs ([3]; AF model dogs, oral AMIO 50 mg/kg/day vs DEA 25 mg/kg/day): more than three times higher
concentration at 4 weeks ([3]; left atrium, Left atrium AMIO level, Mean, dogs with AF, 4-week oral AMIO 50 mg/kg/day, n=3): 35200 ng/g
concentration at 4 weeks ([3]; left atrium, Left atrium AMIO level, individual animals, dogs with AF, 4-week oral AMIO 50 mg/kg/day): 32600 ng/g
concentration at 4 weeks ([3]; left ventricle, Left ventricle AMIO level, Mean, dogs with AF, 4-week oral AMIO 50 mg/kg/day, n=3): 34400 ng/g
concentration at 4 weeks ([3]; left ventricle, Left ventricle AMIO level, individual animals, dogs with AF, 4-week oral AMIO 50 mg/kg/day): 36600 ng/g
concentration at 4 weeks ([3]; right atrium, Right atrium AMIO level, Mean, dogs with AF, 4-week oral AMIO 50 mg/kg/day, n=3): 24600 ng/g
concentration at 4 weeks ([3]; right ventricle, Right ventricle AMIO level, Mean, dogs with AF, 4-week oral AMIO 50 mg/kg/day, n=3): 34700 ng/g
concentration at 4 weeks ([3]; right ventricle, Right ventricle AMIO level, individual animals, dogs with AF, 4-week oral AMIO 50 mg/kg/day): 40800 ng/g
Left atrium AMIO level, individual animals [3, 7]: 39.045 μg/tissue g and 33.89 μg/tissue g
Left ventricle AMIO level, individual animals [3, 7]: 42.573 μg/tissue g and 24.061 μg/tissue g
Right atrium AMIO level, individual animals [3, 7]: 47.005 μg/tissue g and 19.936 μg/tissue g and 6.933 μg/tissue g
Right ventricle AMIO level, individual animals [3, 7]: 37.033 μg/tissue g and 26.349 μg/tissue g
Liver AMIO level, Mean ± SE [3, 8]: 126.8 ± 41.58 μg/tissue g
Liver AMIO level, individual animals [3, 8]: 123.961 μg/tissue g and 200.27 μg/tissue g and 56.314 μg/tissue g
Lung AMIO level, Mean ± SE [3, 8]: 215.1 ± 60.12 μg/tissue g
Lung AMIO level, individual animals [3, 8]: 312.24 μg/tissue g and 227.793 μg/tissue g and 105.152 μg/tissue g
Vmax (V/s), Dog atrium ([4]; n = 3, CONTROL 249.7 ± 52.7): 252.9 ± 56.7 V/s
APD90 (ms), Dog atrium ([4]; n = 4, CONTROL 123.9 ± 9.6): 140.8 ± 12.4 ms
Hepatic function alterations (total cholesterol, alkaline phosphatase [ALP]) ([5]; 28-day oral AMIO 200 mg/kg/day compared to DEA 100 mg/kg/day): more robust
Alveolar histiocytosis in the lungs ([5]; 28-day oral AMIO 200 mg/kg/day or DEA 100 mg/kg/day): alveolar histiocytosis was detected
Detection of the administered drug 14 days after the completion of administration ([5]; 28-day oral AMIO 200 mg/kg/day or DEA 100 mg/kg/day, plasma (DEA: plasma or cardiac tissue)): could be detected in plasma samples
Increase in body weight following 28-day treatment ([5]; AMIO 200 mg/kg/day or DEA 100 mg/kg/day, normal increase 44 g): 13 g
Food consumption and appetite ([5]; first 3 weeks of 200 mg/kg/day AMIO, compared to control and 100 mg/kg/day DEA treated animals): reduced
Kidney AMIO level [6]: 112.173 μg/tissue g
Left Ventricle AMIO level [6]: 81.928 μg/tissue g
Liver AMIO level [6]: 177.317 μg/tissue g
Lung AMIO level [6]: 178.360 μg/tissue g
Right Atrium AMIO level [6]: 75.854 μg/tissue g and 152.023 μg/tissue g
